Experimental data as given in patent US20100099561A1, “HETEROBICYCLIC ALKYLTHIO-BRIDGED ISOXAZOLINES” (E.I. DU PONT DE NEMOURS AND COMPANY, priority 2008, published 2010).

Columns and labels:
Format in all cases: in vivo
[1] = test system: large crabgrass (Digitaria sanguinalis); test: Test A postemergence, large crabgrass; conditions: 0 to 100 scale (0 no effect, 100 complete control)
Procedure, shortened: (§1)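 Each compound, in a non-phytotoxic solvent mixture with surfactant, is applied to soil at planting and, concurrently, to young one- to two-leaf plants. After approximately ten greenhouse days, visual response is rated 0 (no effect) to 100 (complete control) against untreated controls.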

[2] = test system: velvetleaf (Abutilon theophrasti); test: Test B preemergence, velvetleaf; conditions: Preemergence, scale 0 to 100
Text: (§2) Seeds of plant species selected from blackgrass (Alopecurus myosuroides), downy bromegrass (Bromus tectorum), green foxtail (Setaria viridis), Italian ryegrass (Lolium multiflorum), wheat (Triticum aestivum), wild oat (Avena fatua), catchweed bedstraw (Galium aparine), bermudagrass (Cynodon dactylon), Surinam grass (Brachiaria decumbens), cocklebur (Xanthium strumarium), corn (Zea mays), large crabgrass (Digitaria sanguinalis), woolly cupgrass (Eriochloa villosa), giant foxtail (Setaria faberii), goosegrass (Eleusine indica), johnsongrass (Sorghum halepense), kochia (Kochia scoparia), lambsquarters (Chenopodium album), morningglory (Ipomoea coccinea), nightshade (eastern black nightshade, Solanum ptycanthum), yellow nutsedge (Cyperus esculentus), pigweed (Amaranthus retroflexus), ragweed (common ragweed, Ambrosia elatior), soybean (Glycine max), sunflower (common oilseed sunflower, Helianthus annuus), Russian thistle (Salsola kali), and velvetleaf (Abutilon theophrasti) were planted into a blend of loam soil and sand and treated preemergence with test compounds formulated in a non-phytotoxic solvent mixture which included a surfactant. Treated plants and controls were maintained in a greenhouse for 13 to 15 days, after which time all species were compared to controls and visually evaluated. Plant response ratings, summarized in Table B, are based on a scale of 0 to 100 where 0 is no effect and 100 is complete control. A dash (-) response means no test result.

[3] = test system: giant foxtail (Setaria faberii); test: Test B preemergence, giant foxtail; conditions: scale 0 to 100
Text: as §2

[4] = test system: barnyardgrass (Echinochloa crus-galli); test: Test A postemergence, barnyardgrass; conditions: 0 to 100 scale (0 no effect, 100 complete control)
Procedure, shortened: as §1

[5] = test system: velvetleaf (Abutilon theophrasti); test: Test A preemergence, velvetleaf; conditions: 0 to 100 scale (0 no effect, 100 complete control)
Procedure, shortened: as §1

[6] = test system: blackgrass (Alopecurus myosuroides); test: Test B preemergence, blackgrass; conditions: scale 0 to 100
Text: as §2

[7] = test system: ducksalad (Heteranthera limosa); test: Test B flooded paddy test, ducksalad; conditions: Flood, scale 0 to 100
Procedure, shortened: (§3)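 Compounds were added directly to paddy water over 2-leaf-stage plants in pots flooded 3 cm above soil, water depth maintained. Visual injury scored against controls after 13 to 15 days in greenhouse, 0 (none) to 100 (complete control); dash indicates no result.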

[8] = test system: morningglory (Ipomoea spp.); test: Test A preemergence, morningglory; conditions: 0 to 100 scale (0 no effect, 100 complete control)
Procedure, shortened: as §1

soybean (Glycine max) = test: Test B preemergence, soybean; conditions: Preemergence, scale 0 to 100
Text: as §2

[9] = test system: wheat (Triticum aestivum); test: Test A preemergence, wheat; conditions: 0 to 100 scale (0 no effect, 100 complete control)
Procedure, shortened: as §1

[10] = test system: ragweed (common ragweed, Ambrosia elatior); test: Test B preemergence, ragweed; conditions: scale 0 to 100
Text: as §2

[11] = test system: yellow nutsedge (Cyperus esculentus); test: Test B preemergence, yellow nutsedge; conditions: scale 0 to 100
Text: as §2

wild oat (Avena fatua) = test: Test B preemergence, wild oat; conditions: scale 0 to 100
Text: as §2

[12] = test system: goosegrass (Eleusine indica); test: Test B preemergence, goosegrass; conditions: scale 0 to 100
Text: as §2

[13] = test system: morningglory (Ipomoea coccinea); test: Test B preemergence, morningglory; conditions: scale 0 to 100
Text: as §2

corn (Zea mays) = test: Test B preemergence, corn; conditions: scale 0 to 100
Text: as §2

[14] = test system: giant foxtail (Setaria faberi); test: Test A preemergence, giant foxtail; conditions: 0 to 100 scale (0 no effect, 100 complete control)
Procedure, shortened: as §1

[15] = test system: green foxtail (Setaria viridis); test: Test B preemergence, green foxtail; conditions: scale 0 to 100
Text: as §2

rice (Oryza sativa) = test: Test B flooded paddy test, rice; conditions: Flood, scale 0 to 100
Procedure, shortened: as §3

Compound: CC1(C)CC(S(=O)(=O)Cc2c(C(F)(F)F)nc3n(c2=O)CCCC3)=NO1 [Compound 8, 3-[[(4,5-dihydro-5,5-dimethyl-3-isoxazolyl)sulfonyl]methyl]-6,7,8,9-tetrahydro-2-(trifluoromethyl)-4H-pyrido[1,2-α]pyrimidin-4-one]
- Plant response rating, Crabgrass, Large ([1]; 125 g ai/ha): 60
- Plant response rating, Crabgrass, Large ([1]; 500 g ai/ha): 90
- Plant response rating, Velvetleaf ([2]; 16 g ai/ha): 0
- Plant response rating, Velvetleaf ([2]; 31 g ai/ha): 0
- Plant response rating, Velvetleaf ([2]; 62 g ai/ha): 35
- Plant response rating, Velvetleaf ([2]; 125 g ai/ha): 45
- Plant response rating, Foxtail, Giant ([3]; 16 g ai/ha): 80
- Plant response rating, Foxtail, Giant ([3]; 31 g ai/ha): 90
- Plant response rating, Foxtail, Giant ([3]; 62 g ai/ha): 98
- Plant response rating, Foxtail, Giant ([3]; 125 g ai/ha): 100
- Plant response rating, Barnyardgrass ([4]; 125 g ai/ha): 80
- Plant response rating, Barnyardgrass ([4]; 500 g ai/ha): 90
- Plant response rating, Velvetleaf ([5]; 125 g ai/ha): 20
- Plant response rating, Velvetleaf ([5]; 500 g ai/ha): 90
- Plant response rating, Blackgrass ([6]; 16 g ai/ha): 0
- Plant response rating, Blackgrass ([6]; 31 g ai/ha): 90
- Plant response rating, Blackgrass ([6]; 62 g ai/ha): 90
- Plant response rating, Blackgrass ([6]; 125 g ai/ha): 100
- Plant response rating, Ducksalad ([7]; 62 g ai/ha): 0
- Plant response rating, Ducksalad ([7]; 250 g ai/ha): 20
- Plant response rating, Morningglory ([8]; 125 g ai/ha): 20
- Plant response rating, Morningglory ([8]; 500 g ai/ha): 90
- Plant response rating, Soybean (soybean (Glycine max); 16 g ai/ha): 0
- Plant response rating, Soybean (soybean (Glycine max); 31 g ai/ha): 0
- Plant response rating, Soybean (soybean (Glycine max); 62 g ai/ha): 0
- Plant response rating, Soybean (soybean (Glycine max); 125 g ai/ha): 0
- Plant response rating, Wheat ([9]; 125 g ai/ha): 0
- Plant response rating, Wheat ([9]; 500 g ai/ha): 60
- Plant response rating, Ragweed ([10]; 16 g ai/ha): 0
- Plant response rating, Ragweed ([10]; 31 g ai/ha): 0
- Plant response rating, Ragweed ([10]; 62 g ai/ha): 25
- Plant response rating, Ragweed ([10]; 125 g ai/ha): 60
- Plant response rating, Nutsedge, Yellow ([11]; 16 g ai/ha): 0
- Plant response rating, Nutsedge, Yellow ([11]; 31 g ai/ha): 20
- Plant response rating, Nutsedge, Yellow ([11]; 62 g ai/ha): 60
- Plant response rating, Nutsedge, Yellow ([11]; 125 g ai/ha): 80
- Plant response rating, Oat, Wild (wild oat (Avena fatua); 16 g ai/ha): 0
- Plant response rating, Oat, Wild (wild oat (Avena fatua); 31 g ai/ha): 0
- Plant response rating, Oat, Wild (wild oat (Avena fatua); 62 g ai/ha): 35
- Plant response rating, Oat, Wild (wild oat (Avena fatua); 125 g ai/ha): 90
- Plant response rating, Goosegrass ([12]; 16 g ai/ha): 98
- Plant response rating, Goosegrass ([12]; 31 g ai/ha): 98
- Plant response rating, Goosegrass ([12]; 62 g ai/ha): 100
- Plant response rating, Goosegrass ([12]; 125 g ai/ha): 100
- Plant response rating, Morningglory ([13]; 16 g ai/ha): 0
- Plant response rating, Morningglory ([13]; 31 g ai/ha): 0
- Plant response rating, Morningglory ([13]; 62 g ai/ha): 20
- Plant response rating, Morningglory ([13]; 125 g ai/ha): 80
- Plant response rating, Corn (corn (Zea mays); 16 g ai/ha): 10
- Plant response rating, Corn (corn (Zea mays); 31 g ai/ha): 15
- Plant response rating, Corn (corn (Zea mays); 62 g ai/ha): 45
- Plant response rating, Corn (corn (Zea mays); 125 g ai/ha): 55
- Plant response rating, Foxtail, Giant ([14]; 125 g ai/ha): 100
- Plant response rating, Foxtail, Giant ([14]; 500 g ai/ha): 100
- Plant response rating, Foxtail, Green ([15]; 16 g ai/ha): 70
- Plant response rating, Foxtail, Green ([15]; 31 g ai/ha): 85
- Plant response rating, Foxtail, Green ([15]; 62 g ai/ha): 98
- Plant response rating, Foxtail, Green ([15]; 125 g ai/ha): 98
- Plant response rating, Rice (rice (Oryza sativa); 62 g ai/ha): 0
- Plant response rating, Rice (rice (Oryza sativa); 250 g ai/ha): 0

Compound: CC1(C)CC(S(=O)(=O)Cc2c(C(F)(F)F)nc3n(c2=O)CCC3)=NO1 [Compound 11, 3-[[(4,5-dihydro-5,5-dimethyl-3-isoxazolyl)sulfonyl]methyl]-7,8-dihydro-2-(trifluoromethyl)pyrrolo[1,2-α]pyrimidin-4(6H)-one]
- Plant response rating, Crabgrass, Large ([1]; 125 g ai/ha): 80
- Plant response rating, Crabgrass, Large ([1]; 500 g ai/ha): 90
- Plant response rating, Velvetleaf ([2]; 16 g ai/ha): 0
- Plant response rating, Velvetleaf ([2]; 31 g ai/ha): 0
- Plant response rating, Velvetleaf ([2]; 62 g ai/ha): 0
- Plant response rating, Velvetleaf ([2]; 125 g ai/ha): 65
- Plant response rating, Foxtail, Giant ([3]; 16 g ai/ha): 0
- Plant response rating, Foxtail, Giant ([3]; 31 g ai/ha): 40
- Plant response rating, Foxtail, Giant ([3]; 62 g ai/ha): 95
- Plant response rating, Foxtail, Giant ([3]; 125 g ai/ha): 100
- Plant response rating, Barnyardgrass ([4]; 125 g ai/ha): 80
- Plant response rating, Barnyardgrass ([4]; 500 g ai/ha): 90
- Plant response rating, Velvetleaf ([5]; 125 g ai/ha): 10
- Plant response rating, Velvetleaf ([5]; 500 g ai/ha): 60
- Plant response rating, Blackgrass ([6]; 16 g ai/ha): 0
- Plant response rating, Blackgrass ([6]; 31 g ai/ha): 70
- Plant response rating, Blackgrass ([6]; 62 g ai/ha): 70
- Plant response rating, Blackgrass ([6]; 125 g ai/ha): 100
- Plant response rating, Ducksalad ([7]; 31 g ai/ha): 0
- Plant response rating, Ducksalad ([7]; 62 g ai/ha): 0
- Plant response rating, Ducksalad ([7]; 125 g ai/ha): 0
- Plant response rating, Ducksalad ([7]; 250 g ai/ha): 35
- Plant response rating, Morningglory ([8]; 125 g ai/ha): 30
- Plant response rating, Morningglory ([8]; 500 g ai/ha): 90
- Plant response rating, Soybean (soybean (Glycine max); 16 g ai/ha): 0
- Plant response rating, Soybean (soybean (Glycine max); 31 g ai/ha): 0
- Plant response rating, Soybean (soybean (Glycine max); 62 g ai/ha): 0
- Plant response rating, Soybean (soybean (Glycine max); 125 g ai/ha): 0
- Plant response rating, Wheat ([9]; 125 g ai/ha): 0
- Plant response rating, Wheat ([9]; 500 g ai/ha): 60
- Plant response rating, Ragweed ([10]; 16 g ai/ha): 0
- Plant response rating, Ragweed ([10]; 31 g ai/ha): 40
- Plant response rating, Ragweed ([10]; 62 g ai/ha): 50
- Plant response rating, Ragweed ([10]; 125 g ai/ha): 55
- Plant response rating, Nutsedge, Yellow ([11]; 16 g ai/ha): 0
- Plant response rating, Nutsedge, Yellow ([11]; 31 g ai/ha): 0
- Plant response rating, Nutsedge, Yellow ([11]; 62 g ai/ha): 0
- Plant response rating, Nutsedge, Yellow ([11]; 125 g ai/ha): 0
- Plant response rating, Oat, Wild (wild oat (Avena fatua); 16 g ai/ha): 0
- Plant response rating, Oat, Wild (wild oat (Avena fatua); 31 g ai/ha): 10
- Plant response rating, Oat, Wild (wild oat (Avena fatua); 62 g ai/ha): 20
- Plant response rating, Oat, Wild (wild oat (Avena fatua); 125 g ai/ha): 65
- Plant response rating, Goosegrass ([12]; 16 g ai/ha): 65
- Plant response rating, Goosegrass ([12]; 31 g ai/ha): 90
- Plant response rating, Goosegrass ([12]; 62 g ai/ha): 100
- Plant response rating, Goosegrass ([12]; 125 g ai/ha): 100
- Plant response rating, Morningglory ([13]; 16 g ai/ha): 0
- Plant response rating, Morningglory ([13]; 31 g ai/ha): 65
- Plant response rating, Morningglory ([13]; 62 g ai/ha): 80
- Plant response rating, Morningglory ([13]; 125 g ai/ha): 95
- Plant response rating, Corn (corn (Zea mays); 16 g ai/ha): 0
- Plant response rating, Corn (corn (Zea mays); 31 g ai/ha): 0
- Plant response rating, Corn (corn (Zea mays); 62 g ai/ha): 0
- Plant response rating, Corn (corn (Zea mays); 125 g ai/ha): 0
- Plant response rating, Foxtail, Giant ([14]; 125 g ai/ha): 90
- Plant response rating, Foxtail, Giant ([14]; 500 g ai/ha): 100
- Plant response rating, Foxtail, Green ([15]; 16 g ai/ha): 20
- Plant response rating, Foxtail, Green ([15]; 31 g ai/ha): 70
- Plant response rating, Foxtail, Green ([15]; 62 g ai/ha): 100
- Plant response rating, Foxtail, Green ([15]; 125 g ai/ha): 100
- Plant response rating, Rice (rice (Oryza sativa); 31 g ai/ha): 0
- Plant response rating, Rice (rice (Oryza sativa); 62 g ai/ha): 0
- Plant response rating, Rice (rice (Oryza sativa); 125 g ai/ha): 25
- Plant response rating, Rice (rice (Oryza sativa); 250 g ai/ha): 25
